According to paper PMC8397418, “Novel Bis-Thiazole Derivatives: Synthesis and Potential Cytotoxic Activity Through Apoptosis With Molecular Docking Approaches” (Frontiers in Chemistry, 2021):
pIC50: −log10 of the molar value.

Assays:
[1] = test system: KF-28 ovarian cancer cells; assay: MTT cytotoxicity assay, KF-28; assay type: cell-based, human; conditions: Homo sapiens; MTT, 72 h, n = 3; read-out: IC50 KF-28 (Ovarian)
Method: (§1) The synthesized derivatives were screened for their cytotoxic activities against five cancer cell lines (two breast cancer cell lines: MCF-7 and MDA-MB-231, two ovarian cancer cell lines: A2780 and KF-28, and one cervical cancer cell line: Hela). This study was performed using serial concentrations of 25, 50, 100, 150, and 200 µM of each compound using the MTT assay. Percentages of cell viability of the tested compounds with serial concentration against the tested panel of cell lines are depicted in Figure 1, in which there is a decrease in the cell viability with increasing concentrations in a dose–response pattern. […] Therefore, compounds 5a, 5b, and 5f were thought worthwhile to further investigate their effects as either cytotoxic or antiproliferative effects and whether any of them is an inducer of apoptotic cell death in the representative cancer cell lines KF-28 and A2780.
(§2) The human ovarian serous carcinoma cell line KF-28 was kindly provided by Prof. Yoshihiro Kikuchi (Department of Obstetrics and Gynecology, National Defense Medical College, Saitama, Japan), and A2780 cell line was purchased from the ECACC (ECACC 93112519). The cells were maintained in RPMI-1640 (Sigma-Aldrich, United States). The cervical cancer cell line, Hela cells, breast cancer cell line, MCF-7, and MDA-MB-231 were purchased from the ATCC and cultured in DMEM. Both types of media were supplemented with 2 mM L-glutamine (Lonza, Belgium), 10% FBS (Sigma, St. Louis, MO, United States), and 1% penicillin/streptomycin (Lonza, Belgium). All cells were incubated at 37°C in 5% CO2 atmosphere (NuAire). All cancer cell lines were cultured according to the routine tissue culture work as discussed by the Freshney group ([Freshney, 2010]). The cells were plated at a density of 5,000 cells in triplicates in a 96-well plate. On the next day, the cells were treated with the indicated compound(s) at the indicated concentrations in a final volume of 100 μL media. Cell viability was assessed after 72 h using MTT solution (Promega) ([Mosmann, 1983]). 20 μL of the reagent was added to each well, the plate was incubated for 3 h, […] was subsequently measured (570 nm) using a plate reader, and then the IC50 values were calculated using Excel ([Tantawy et al., 2020]).

[2] = test system: Hela cervical cancer cells; assay: MTT cytotoxicity assay, Hela; assay type: cell-based; conditions: Homo sapiens, MTT, 72 h, n = 3, read-out: IC50 Hela (Cervical)
Method: as §1, §2

[3] = test system: MEF normal mouse embryonic fibroblast; assay: MTT cytotoxicity assay, MEF; assay type: cell-based; conditions: n = 3
[4] = test system: MCF-7 breast cancer cells; assay: MTT cytotoxicity assay, MCF-7; assay type: cell-based, human; conditions: Homo sapiens, MCF7; MTT, 72 h, n = 3; read-out: IC50 MCF-7 (Breast)
Method: as §1, §2

[5] = test system: A2780 ovarian cancer cells; assay: MTT cytotoxicity assay, A2780; assay type: cell-based, human; conditions: Homo sapiens, A2780; MTT, 72 h, n = 3; read-out: IC50 A2780 (Ovarian)
Method: as §1, §2

KF-28 cells = assay: Annexin V-FITC/PI apoptosis assessment; assay type: cell-based, human; conditions: 48 h, cisplatin 10 μM, DMSO control 0.45%
Method: Therefore, we decided to use such technique to investigate if the cytotoxic effect of the compounds indicated by MTT and the cell cycle experiments is apoptotic cell death or not. For that purpose, two cell lines, KF-28 and A2780, were stained by annexin V/PI after treatment with different compounds vs. DMSO for two days in parallel with cisplatin as a reference drug. Results from annexin staining analysis show appreciated annexin V–stained populations when cells are treated with compounds 5a–c, 5f, and 9. […] Similar results were obtained from the other cell line, A2780, treated with the same compounds (Figure 2B).
The cells were seeded into six-well culture plates (3–5 × 10^5 cells/well) and incubated overnight at 37°C, under 5% CO2. The cells were then treated with indicated compounds for 48 h. Next, media supernatants and the cells were collected and washed with ice-cold PBS. Next, the cells were stained with PI (10 mg/ml) for 30 min and analyzed for DNA contents using flow cytometry analysis using an FL2 (λex/em 535/617 nm) signal detector (ACEA Novocyte™ flow cytometer, ACEA Biosciences, Inc., San Diego, CA, United States). For each sample, 12,000 events are acquired. Cell cycle distribution is calculated using a CytoFLex machine and analyzed by CytExpert software. Flow cytometric methodologies (annexin V/PI staining with cell cycle analyses) are carried out as previously described ([Nafie et al., 2020a]; [Nafie et al., 2020b]; [Gad et al., 2020]).

[6] = test system: MDA-MB-231 breast cancer cells; assay: MTT cytotoxicity assay, MDA-MB-231; assay type: cell-based; conditions: Homo sapiens, MDA-MB-231; MTT, 72 h, n = 3; read-out: IC50 MDA-MB-231 (Breast)
Method: as §1, §2

Row | Structure (SMILES) | pIC50 [1] | pIC50 [2] | pIC50 [3] | pIC50 [4] | pIC50 [5] | Total apoptotic cell death (annexin V-positive cells) (KF-28 cells) [%] | pIC50 [6]
1 | Cc1[nH]c(=NN=C2CCC(=NN=c3[nH]c(C)c(N=Nc4ccccc4)s3)CC2)sc1N=Nc1ccccc1 [5a, 1,4-Bis((5-phenylazo-4-methylthiazol-2-ylidene)hydrazono)cyclohexane] | > 4.60 | < 3.70 | 5.15 | < 3.70 | 4.11 | 38.21 | –
2 | Cc1[nH]c(=NN=C2CCC(=NN=c3[nH]c(C)c(N=Nc4ccccc4Cl)s3)CC2)sc1N=Nc1ccccc1Cl [5f, 1,4-Bis((5-(2-chlorophenylazo)-4-methylthiazol-2-ylidene)hydrazono)cyclohexane] | > 4.60 | < 3.70 | < 3.70 | < 3.70 | > 4.60 | – | < 3.70
3 | Cc1ccc(N=Nc2sc(=NN=C3CCC(=NN=c4[nH]c(C)c(N=Nc5ccc(C)cc5)s4)CC3)[nH]c2C)cc1 [5b, 1,4-Bis((5-(4-tolylazo)-4-methylthiazol-2-ylidene)hydrazono)cyclohexane] | > 4.60 | < 3.70 | 5.63 | < 3.70 | 4.03 | 18.77 | < 3.70
